Assay results from PubChem BioAssay AID2060351 (Molecular Pharmacology Branch, DTP, NCI, 2025).
Several values for one entry are separate records, joined by “and”; a condition that tells them apart may be missing. Identical values can stand only once.

Tested on: 521955-158-R7-J2-PDC spheroids, viability % test/control
Assay: Anticancer human tumor 521955-158-R7-J2-PDC patient-derived pancreatic carcinoma cell line growth inhibition [TAK]
Conditions: spheroids with HUVEC and MSC; for viability, T/C: stronger effect = lower value; active = viability on the fitted dose curve at most 10% of control; inactive = the rest
Excerpt: Combinatorial screen of targeted agents with TAK-243 and ipatasertib in multi-cell type tumor spheroids
A high-throughput screen of multi-cell type tumor spheroids was designed to identify active combinations of targeted small molecules and TAK-243 or ipatasertib. Complex spheroids include a stromal component modeled by human endothelial cells (HUVEC) and fibroblasts modeled by human mesenchymal stem cells (MSCs). The concentration ranges selected for each drug and investigational agent were based upon clinically achievable concentrations if the clinical Cmax of the agent was known.
Compounds. The drugs and investigational agents: TAK-243 (785004), ipatasertib (767898), everolimus (733504), selumetinib (741078), bortezomib (756655), trametinib (758246), ixazomib (758254), vemurafenib (761431), dabrafenib (764134), sapanisertib (764658), alpelisib (765974), and copanlisib (816437), were obtained from the National Cancer Institute (NCI) Developmental Therapeutics Program Chemical Repository. The FDA-approved anticancer drug set is available from the NCI Developmental Therapeutics Program. […] The stock solutions were prepared in dimethyl sulfoxide (DMSO, Sigma-Aldrich, St. Louis, MO, cat. D2650) at 800-fold the tested concentration and stored at -70 degrees C prior to their use. All drugs and investigational agents were tested over a range starting from a high concentration at or near the clinical Cmax and decreasing in half-log increments. If the clinical Cmax for an agent had not been determined, the highest concentration tested was 10 microM.
NCI60 Cell Culture. NCI60 cell lines were obtained from the NCI Developmental Therapeutics Program Tumor Repository. For each lot of cells, the Repository performed Applied Biosystems AmpFLSTR Identifiler testing with PCR amplification to confirm consistency with the published Identifier STR profile for each cell line. Cells were kept in continuous culture for no more than 20 passages. The optimal seeding densities for each of the cell lines at each time point assessed were determined prior to performing the concentration response studies. Briefly, the NCI60 human tumor lines were grown as monolayers in RPMI 1640 medium supplemented with 10% FBS and 2 mmol/L L-glutamine.
An additional 2 lines were from the NCI60 cell line panel including melanomas, MALME-3M and SK-MEL-2. Pooled donor human umbilical vein endothelial cells (HUVEC, Lonza, cat. CC-2519) and human mesenchymal stem cells (hMSC, Lonza, cat. PT-2501) were purchased from Lonza (Walkersville, MD).
PDMR cell lines were grown in complete medium (DC medium): Dulbecco's modified Eagle's medium (DMEM)/F12 supplemented with 5% fetal bovine serum (FBS), 2 mM L-glutamine, 100 U/mL penicillin and 100 µg/ml streptomycin, 0.4 µg/ml hydrocortisone, 10 ng/ml epidermal growth factor (EGF) recombinant human protein, 24 µg/mL adenine, and 0.1 mg/mL primocin. During culture from frozen stock vials, PDMR cells were cultured in the same medium containing 10 µM Y-27632 (see Table 3). The PDCs were cultured in complete DMEM/F12 media without 10 microM Y-27632 dihydrochloride for at least two passages prior to the screen. The pooled donor HUVEC and hMSC were cultured in endothelial cell growth medium 2 (PromoCell, Heidelberg, Germany, cat. C-22011) and mesenchymal stem cell growth medium 2 (PromoCell, cat. C-28009), respectively. For all experiments, HUVEC and hMSC were used at passages </=5.
For the pre-screen, cell seeding densities were determined from a titration spanning the range from 5,000 to 313 cells per well. The mct-spheroids including 60% malignant cells, 25% HUVEC and 15% MSC dispensed as a mixture into U-bottom Ultra-Low Attachment 384-well plates (Corning, NY)
High-throughput Drug Combination Screening.
Prior to their inoculation into 384-well plates, malignant cells, HUVEC, and hMSC were removed from T flasks using TrypLE express (Thermo Fisher Scientific, cat. 12605036) and harvested by centrifugation for 5 min at 233 x g. […]

[1] = curve of first compound, second compound 0.3 µM
[2] = curve of first compound, second compound 0.949 µM
[3] = curve of first compound, second compound 3 µM
[4] = curve of first compound, second compound 9.49 µM
[5] = curve of first compound, second compound 30 µM
[6] = second compound 0.3 µM, first compound 0.316 µM
[7] = second compound 0.3 µM, first compound 1 µM
[8] = second compound 0.3 µM, first compound 3.16 µM
[9] = second compound 0.3 µM, first compound 10 µM
[10] = second compound 0.949 µM, first compound 0.316 µM
[11] = second compound 0.949 µM, first compound 1 µM
[12] = second compound 0.949 µM, first compound 3.16 µM
[13] = second compound 0.949 µM, first compound 10 µM
[14] = second compound 3 µM, first compound 0.316 µM
[15] = second compound 3 µM, first compound 1 µM
[16] = second compound 3 µM, first compound 3.16 µM
[17] = second compound 3 µM, first compound 10 µM
[18] = second compound 9.49 µM, first compound 0.316 µM
[19] = second compound 9.49 µM, first compound 1 µM
[20] = second compound 9.49 µM, first compound 3.16 µM
[21] = second compound 9.49 µM, first compound 10 µM
[22] = second compound 30 µM, first compound 0.316 µM
[23] = second compound 30 µM, first compound 1 µM
[24] = second compound 30 µM, first compound 3.16 µM
[25] = second compound 30 µM, first compound 10 µM
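Note: spheroids exposed to compound for 7 days before readout.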

CCCS(=O)(=O)Nc1ccc(F)c(C(=O)c2c[nH]c3ncc(-c4ccc(Cl)cc4)cc23)c1F + CC(C)NCC(C(=O)N1CCN(c2ncnc3c2C(C)CC3O)CC1)c1ccc(Cl)cc1
21.8 µM: IC50 [4]
> 100 µM: IC50 [1] | IC50 [2] | IC50 [3]
active: viability, T/C [25] 5.6% | viability, T/C (second compound 30 µM, first compound 31.6 µM) 5.46% | viability, T/C (second compound 30 µM, first compound 100 µM) 13.1%
inactive: viability, T/C [6] 85.9% | viability, T/C [7] 83.5% | viability, T/C [8] 85.8% | viability, T/C [9] 108% | viability, T/C (second compound 0.3 µM, first compound 31.6 µM) 69.5% | viability, T/C (second compound 0.3 µM, first compound 100 µM) 81.8% | viability, T/C [10] 84.4% | viability, T/C [11] 94.1% | viability, T/C [12] 90.9% | viability, T/C [13] 107% | viability, T/C (second compound 0.949 µM, first compound 31.6 µM) 53.6% | viability, T/C (second compound 0.949 µM, first compound 100 µM) 87% | viability, T/C [14] 82.9% | viability, T/C [15] 89.1% | viability, T/C [16] 105% | viability, T/C [17] 88.5% | viability, T/C (second compound 3 µM, first compound 31.6 µM) 54% | viability, T/C (second compound 3 µM, first compound 100 µM) 50.5% | viability, T/C [18] 85.4% | viability, T/C [19] 107% | viability, T/C [20] 99.8% | viability, T/C [21] 73.7% | viability, T/C (second compound 9.49 µM, first compound 31.6 µM) 39.9% | viability, T/C (second compound 9.49 µM, first compound 100 µM) 32.4% | viability, T/C [22] 107% | viability, T/C [23] 119% | viability, T/C [24] 127%
6.43 µM: IC50 [5]

Cc1nc(NC(=O)N2CCCC2C(N)=O)sc1-c1ccnc(C(C)(C)C(F)(F)F)c1 (configuration not stated) + CC(C)NCC(C(=O)N1CCN(c2ncnc3c2C(C)CC3O)CC1)c1ccc(Cl)cc1
5.65 µM: IC50 [1]
3.05 µM: IC50 [2]
inactive: viability, T/C (second compound 0.3 µM, first compound 0.0316 µM) 106% | viability, T/C (second compound 0.3 µM, first compound 0.1 µM) 106% | viability, T/C [6] 83.6% | viability, T/C [7] 62.2% | viability, T/C [8] 69.5% | viability, T/C [9] 38.6% | viability, T/C (second compound 0.949 µM, first compound 0.0316 µM) 84% | viability, T/C (second compound 0.949 µM, first compound 0.1 µM) 82.6% | viability, T/C [10] 64.6% | viability, T/C [11] 54.7% | viability, T/C [12] 60.5% | viability, T/C [13] 33.6% | viability, T/C (second compound 3 µM, first compound 0.0316 µM) 90% | viability, T/C (second compound 3 µM, first compound 0.1 µM) 79% | viability, T/C [14] 54.6% | viability, T/C [15] 57.3% | viability, T/C [16] 45.4% | viability, T/C [17] 30.8% | viability, T/C (second compound 9.49 µM, first compound 0.0316 µM) 92.6% | viability, T/C (second compound 9.49 µM, first compound 0.1 µM) 70.1% | viability, T/C [18] 48% | viability, T/C [19] 43% | viability, T/C [20] 36.7% | viability, T/C [21] 27.8% | viability, T/C (second compound 30 µM, first compound 0.0316 µM) 93.7% | viability, T/C (second compound 30 µM, first compound 0.1 µM) 79.7% | viability, T/C [22] 44.6% | viability, T/C [23] 43.2% | viability, T/C [24] 39.7% | viability, T/C [25] 25.6%
0.28 µM: IC50 [5]
1.32 µM: IC50 [3]
0.384 µM: IC50 [4]

Cc1nc(NC(=O)N2CCCC2C(N)=O)sc1-c1ccnc(C(C)(C)C(F)(F)F)c1 (configuration not stated)
inactive: viability, T/C (compound 0.0316 µM) 83.2% and 92.5% | viability, T/C (compound 0.1 µM) 64.2% and 84.5% | viability, T/C (compound 0.316 µM) 59.4% and 74% | viability, T/C (compound 1 µM) 70.8% and 73.5% | viability, T/C (compound 3.16 µM) 58.1% and 52.5% | viability, T/C (compound 10 µM) 34.1% and 30.3%
4.56 µM and 3.72 µM: IC50 (curve of compound)
